Earlier results in patent publication US11261215B2, “Somatostatin prodrugs” (YISSUM RESEARCH DEVELOPMENT COMPANY OF THE HEBREW …, priority 2017, dated 2022).
Numbered stars: 1 amine (or outer) side, 2 acyl side, 3 side chain; on linkers, the order of the positions; unused ones are H or OH. Bridge positions count the residues as written; N and C are the ends. Square brackets hold non-standard residues; d marks the D form. Ends that are not written are not given here. PheC3 = Phe building unit, N-alpha-omega-functionalized derivative for backbone cyclization; N(2-aminoethyl)Phe = O=C([C@H](Cc1ccccc1)N(CCN[*:3])[*:1])[*:2]; dNMeW = CN[C@H](Cc1c[nH]c2ccccc12)C(=O)O; NMeF = CN[C@@H](Cc1ccccc1)C(=O)O; NMeK = CN[C@@H](CCCCN)C(=O)O

What was measured:
somatostatin receptors = conditions: cited from earlier work
[1] = tested on: GH, glucagon and insulin secretion; conditions: cited from earlier work
[2] = tested on: amylase and lipase release from the pancreas; conditions: in vivo; cited from earlier work
SSTR5 = SSTR5 (Homo sapiens, UniProt P35346); conditions: cited from earlier work
[3] = rats, oral administration; cited from earlier work

Chain of SSTR5 (P35346 whole entry, species assumed): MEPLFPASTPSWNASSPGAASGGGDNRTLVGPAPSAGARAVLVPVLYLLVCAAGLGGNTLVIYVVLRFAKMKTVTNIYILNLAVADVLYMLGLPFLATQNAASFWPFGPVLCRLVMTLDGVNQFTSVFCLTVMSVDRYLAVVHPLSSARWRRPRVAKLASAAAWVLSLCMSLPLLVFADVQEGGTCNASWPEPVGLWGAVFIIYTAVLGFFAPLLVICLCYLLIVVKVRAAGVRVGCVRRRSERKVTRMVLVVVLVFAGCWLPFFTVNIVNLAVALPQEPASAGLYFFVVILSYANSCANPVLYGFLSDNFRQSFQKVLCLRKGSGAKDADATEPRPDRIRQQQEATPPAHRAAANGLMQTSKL

PheC3-Cys-Phe-DTrp-Lys-Thr-Cys-Phe-PheN3-X (FCFWKTCFF; not fully specified; backbone cyclized; MOD_RES (1)..(1) PheC3 building unit; MOD_RES (1)..(9) backbone cyclization between the N-alpha-omega- functionalized derivative of X1 and the N-alpha-omega- functionalized derivative of X9; DISULFID (2)..(7) bridge; MOD_RES (4)..(4) D-Trp; MOD_RES (9)..(9) PheN3 building unit; MOD_RES (9)..(9) AMIDATION) [PTR-3205]
selectivity toward the somatostatin receptors (somatostatin receptors): selective towards SSTR2

GABA-Phe-Trp-DTrp-Lys-Thr-Phe-GlyC3-NH2 (XFWWKTFG; not fully specified; GABA, backbone cyclized, C-terminal amide; MOD_RES (1)..(1) 4Abu, GABA; MOD_RES (1)..(8) backbone-to-end cyclization between the N-alpha-omega-functionalized derivative of GlyC3 and the N-terminus; MOD_RES (4)..(4) D-Trp; MOD_RES (8)..(8) AMIDATION; MOD_RES (8)..(8) GlyC3 building unit) [PTR-3173]
selectivity toward the somatostatin receptors (somatostatin receptors): selective towards the SSTR2, SSTR4 and SSTR5
effect on insulin secretion ([1]; at physiological concentrations): no effect
GH:insulin potency ratio ([1]; in vivo): > 10,000
potency in the in vivo inhibition of GH relative to that of glucagon ([1]; in vivo): 1000 fold

PheN2-Tyr-DTrp-Lys-Val-PheC3-Thr-NH2 ([N(2-aminoethyl)Phe]Y[dW]KV[PheC3]T-NH2; bridge 1-6; not fully specified (bridges); printed as PheN2-Tyr-DTrp-Lys-Val-PheC3-Thr-NH2) [PTR-3046]
selectivity toward the somatostatin receptors (somatostatin receptors): selective toward the SSTR5
GH or glucagon release ([1]; in vivo): without inhibiting
bombesin- and caerulein-induced amylase and lipase release from the pancreas [2]: inhibits
IC50 (SSTR5): nanomolar range

c(PF(NMe)w(NMe)KT(NMe)F) (cyclo(PF[dNMeW][NMeK]T[NMeF]); SMILES C[C@@H](O)[C@@H]1NC(=O)[C@H](CCCCN)N(C)C(=O)[C@@H](Cc2c[nH]c3ccccc23)N(C)C(=O)[C@H](Cc2ccccc2)NC(=O)[C@@H]2CCCN2C(=O)[C@H](Cc2ccccc2)N(C)C1=O) [Somato8]
calculated absolute oral bioavailability [3]: ~10%
